In series [1] the test system is male rats. Put plainly: Maximum tolerable dose (MTD) study i.p. The conditions noted are these: i.p. It is filed as in vivo, rat. The protocol:
(§1) Two tests were carried out on male rats, namely a determination of the "maximum tolerable dose" (MTD) and a test using multiple peroral doses. In addition, a LD50 test was carried out intravenously on mice.
(§2) In a MTD-test 10 animals were administered a dose of the substance once a day for a week, during which period the clinical and hematological parameters were recorded. When no signs of side effects appeared, the dose was increased in the following weeks until side effects appeared. The hemotological parameters measured were the following: the number of red and white blood cells, the number of blood platelets, the hemoglobin percentage, the hematocrit, and for the red blood cells also the average cell volume, the average cell hemoglobin content, and the average cell hemoglobin concentration. Furthermore, a differential count of the white blood cells was made.

The nature of series [2]: Maximum tolerable dose (MTD) study i.p. It is filed as in vivo, rat. As to conditions: rat, in vivo, ip; intraperitoneal, rats. The protocol:
as §1, §2

Another series relates to blood platelets. Put plainly: Inhibition of blood platelet aggregation (aggregometer, ADP). It is filed as cell-based, human (healthy testees). The conditions noted are these: Platelet, 0.05 h; human PRP, ADP 2 to 4 μM, 3 min incubation, 37° C.; read-out: IC50 (Inhibition of blood platelet aggregation). The protocol: Compounds according to the invention were tested for their inhibition of clumping together (aggregation) of blood platelets (thrombocytes), which is the first phase of the formation of blood clots (thrombi). Such an inhibition may prevent the formation of blood clots and inhibit the development of new thrombi after a diagnosed thrombus.
Citrate stabilized ( 0.38% of sodium citrate, final concentration) venous blood from healthy testees is used, who have not used medicine for at least 8 days. Slight centrifugation (160×g for 10 minutes) results in PRP (blood plasma rich in platelets) which is pipetted. PPP (blood plasma poor in platelets) is obtained by an intense centrifugation (3000×g for 10 minutes) of the remaining blood. The light transmission is measured by the aggregometer (CHRONOLOG). PRP allows nearly no light transmitaaion, while PPP allows complete transmission of light. The PRP is placed in the aggregometer at 37° C. while being stirred by a magnet. Addition of a pro-aggregating substance causes the PRP to aggregate gradually and an increasing light transmission takes place at the same time. At complete aggregation a light transmission corresponding to PPP is obtained. Adnosine diphosphate (ADP) is used as pro-aggregating substance, said substance representing a basic biochemical mechanism for aggregation of blood platelets. The test substances are incubated for 3 minutes in PRP placed in the aggregometer at 37° C. during magnetic stirring. A predetermined positively aggregating dosage of adenosine diphosphate (ADP) (2 to 4 μM) is then added. […] A so-called IC50 -value (that is the concentration inhibiting the aggregation by 50% relative to the control aggregation) is calculated for each test substance by linear regression analysis (log concentration μM as constant ad abscissa and % inhibition as variable ad ordinate). The following known reference substances have been used: nitroglycerine (GTN), sodium nitroprusside (NNP) and SIN-1 (the active metabolite of molsidomine).

Series [3] relates to male rats. Kind of series: Maximum tolerable dose (MTD) study p.o. As to Clinical observations: key: N.R.: nothing remarkable. As to Increase in weight: key: N.R.: nothing remarkable. It is filed as in vivo, rat. The conditions noted are these: p.o. The protocol:
as §1, §2

A short description of series [4]: Maximum tolerable dose (MTD) study p.o. As to Clinical observations: key: N.R.: nothing remarkable. As to Increase in weight: key: N.R.: nothing remarkable. It is filed as in vivo, rat. As to conditions: rat, in vivo, po; peroral, rats. The protocol:
as §1, §2

The test system of series [5] is polymorph nuclear leukocytes (PMNs), c-GMP. Put plainly: Stimulation of c-GMP content in PMNs. It is filed as cell-based, human. The conditions noted are these: 37° C., 10 minutes. The protocol:
(§3) Compounds according to the invention were tested for their ability to increase the content of cyclic guanosine monophosphate (c-GMP), to inhibit the synthesis of the leukotriene B4 (LTB4), and to inhibit the chemotactical movement of polymorph nuclear leukocytes (PMN). The polymorph nuclear leukocytes play a vital part in the cellular part of the inflammation process. At diseases, such as asthma, the mucuos membrane of the respiratory passages is swollen as a result of an inflammation with a significant infiltration of polymorph nuclear leukocytes (PMN's) in particular. Particularly effective substances for the treatment of asthma are such which in addition to relaxing the musculature in the respiratory passages also have an anti-inflammatory effect on the cellular phase of the inflammatory process, that is inhibiting the leukocyte function.
(§4) Isolated human PMNs are incubated at 37° C. for 10 minutes, whereafter the content of cyclic guanosine monophosphate (c-GMP) is measured. Further, the synthesis of the LTB4 is determined after stimulation with Ca-ionophore (A23187) and the chemotaxis (controlled movement) towards FMLP (a substance attracting the polymorph nuclear leukocytes, PMNs) is determined.
Three compounds according to the invention and the reference substance SIN-1 were tested for their ability to stimulate the content of cyclic guanosine monophosphate (c-GMP).

Series [6] deals with polymorph nuclear leukocytes (PMNs). Kind of series: Inhibition of PMN chemotaxis towards FMLP. It is filed as cell-based, human. The protocol: as §3, §4
A further series concerns pre-contracted trachea. Kind of series: Relaxation of pre-contracted isolated trachea. The arrangement: species or system guinea pig. The conditions noted are these: Cavia porcellus; carbamylcholine 0.3 μM, Krebs buffer, 37° C. The procedure:
Compounds according to the invention were tested for their ability to relax a pre-contracted trachea. A contraction of the respiratory passages in combination with a swelling of the mucuos membrane therein presents a vital factor at asthmatic conditions. Relaxation or dilation of the contracted respiratory passages will improve the asthmatic condition.
An isolated trachea from a guinea pig is used. After preparation of a strip which has maintained the circular musculature, the organ is divided into two parts of equal size. The two tracheal strips are suspended in their respective organ bath and connected to a transducer recording the contraction and relaxation of the organ by means of a recorder. The two tracheal strips are continuously bathed in a Krebs buffer at 37° C., constantly bubbled with carbogen (95% O2 and 5% CO2). After an equilibration time of about 3 hours the organs are tested for their sensitivity (contractility) to carbamylcholin a bolus being added directly to the bath (0.3 μM). If the contraction is satisfactory, the organs are transferred to the Krebs buffer containing the same concentration of carbamylcholine. The organs are now constantly exposed to the carbamylcholine and slowly develop a permanent contraction ("asthma"). The test substances are in bolus form added directly to the organ bath. After maximum effect (relaxation) the substances are removed by washing out and the tracheal strip reverts to its permanent contraction state. […] An EC50 -value (that is the concentration relaxing the organ by 50% relative to the maximum relaxation) is calculated for each test substance by means of a linear regression analysis (log concentration (μM) as a constant ad abscissa and % relaxation as variable ad ordinate). Sodium nitroprusside (NNP) and SIN-1 are used as reference substances.

For series [7], the target named is T1, soluble guanylate cyclase (Homo sapiens, UniProt Q02153).
T1 construct: The guanylate cyclase activity in the supernatant after incubation with and without the test substance; endogenous in cells; host or cells: human blood platelets, supernatant of homogenate
T1 sequence (Q02153 1-619): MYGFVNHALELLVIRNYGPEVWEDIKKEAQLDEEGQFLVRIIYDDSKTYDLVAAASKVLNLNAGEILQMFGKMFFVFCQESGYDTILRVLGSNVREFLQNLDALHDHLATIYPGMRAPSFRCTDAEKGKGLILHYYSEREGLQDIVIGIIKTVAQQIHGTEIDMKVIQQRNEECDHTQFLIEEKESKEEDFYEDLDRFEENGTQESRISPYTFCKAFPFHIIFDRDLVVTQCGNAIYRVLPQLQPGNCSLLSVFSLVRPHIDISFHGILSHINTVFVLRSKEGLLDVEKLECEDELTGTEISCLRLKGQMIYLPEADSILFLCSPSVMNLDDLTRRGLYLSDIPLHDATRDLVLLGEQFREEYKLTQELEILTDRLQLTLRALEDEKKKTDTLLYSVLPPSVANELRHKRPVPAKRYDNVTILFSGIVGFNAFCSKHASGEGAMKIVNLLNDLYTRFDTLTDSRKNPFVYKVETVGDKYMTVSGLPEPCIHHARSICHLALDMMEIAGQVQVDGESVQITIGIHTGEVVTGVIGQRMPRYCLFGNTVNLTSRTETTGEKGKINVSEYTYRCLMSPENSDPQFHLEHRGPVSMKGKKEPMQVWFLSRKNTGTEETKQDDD
T1 sequence (Q02108 1-690 partner): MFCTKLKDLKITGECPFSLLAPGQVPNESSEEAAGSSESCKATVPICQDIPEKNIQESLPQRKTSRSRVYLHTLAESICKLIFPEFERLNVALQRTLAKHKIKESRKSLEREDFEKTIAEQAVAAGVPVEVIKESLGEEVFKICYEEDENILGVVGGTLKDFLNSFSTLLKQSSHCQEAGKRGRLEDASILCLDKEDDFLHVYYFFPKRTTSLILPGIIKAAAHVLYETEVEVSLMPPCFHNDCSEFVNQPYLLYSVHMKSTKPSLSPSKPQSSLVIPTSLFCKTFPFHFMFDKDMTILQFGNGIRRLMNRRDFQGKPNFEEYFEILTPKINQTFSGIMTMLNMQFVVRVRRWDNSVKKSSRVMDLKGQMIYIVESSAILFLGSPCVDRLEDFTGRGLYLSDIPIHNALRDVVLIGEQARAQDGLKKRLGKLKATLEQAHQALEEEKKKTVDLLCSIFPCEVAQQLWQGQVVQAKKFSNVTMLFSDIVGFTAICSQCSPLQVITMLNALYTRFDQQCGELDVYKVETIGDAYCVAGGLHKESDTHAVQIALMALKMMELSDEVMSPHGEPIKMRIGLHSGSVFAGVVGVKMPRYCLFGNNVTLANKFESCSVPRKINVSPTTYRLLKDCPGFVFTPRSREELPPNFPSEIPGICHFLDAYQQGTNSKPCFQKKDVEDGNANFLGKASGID
Kind of series: Stimulation of guanylate cyclase from blood platelets (RIA). Type of series: biochemical. The conditions noted are these: 37° C.

The subject of series [8] is polymorph nuclear leukocytes (PMNs), LTB4 synthesis. Kind of series: Inhibition of leukotriene B4 synthesis in PMNs after Ca-ionophore (A23187). It is filed as cell-based, human. The protocol:
as §3, §4

Where [9] appears, read: 10 mg/kg once a day for a week, relative to control.
The mark [10] stands for this setting: 20 mg/kg once a day for a week, relative to control.
Setting [11] is: 20 mg/kg once a day for a week, relative to control, hydrochloride, 20 mg/kg.
Where [12] appears, read: 40 mg/kg once a day for a week, relative to control.

pEC50, pIC50: −log10 of the molar value. Entries after “also recorded” stand apart in the source; their conditions may differ. Structures can show the parent of a compound that is named as a salt.

For `Cc1c(Cl)cccc1-[n+]1noc([NH-])n1` [Example 1, 3-(3-chloro-2-methylphenyl)-1,2,3,4-oxatriazole-5-imine hydrochloride], the Clinical observations result in the series on male rats [1] (setting [9]) was “N.R”; with male rats [1] (setting [11]) it was “a passing CNS effect, where the animals a few minutes after the administration seemed nervous and hyperactive”; in the series on male rats [3] (setting [9]) it was “N.R”; with male rats [3] (setting [10]), “N.R”; in the series on male rats [3] (setting [12]) it was “N.R”. Further, the Hematological parameters result with male rats [1] (setting [9]) was “N:R”; in the series with male rats [3] (setting [9]), “N.R”; with male rats [3] (setting [10]) it was “N.R”. Moreover, the Increase in weight entry in the series on male rats [1] (setting [9]) is “N.R”; with male rats [1] (setting [10]) it was “reduced”; with male rats [3] (setting [9]) it was “N.R”; in the series with male rats [3] (setting [10]), “N.R”; in the series on male rats [3] (setting [12]), “N.R”. The “Hematological parameters: neutrophilic granulocytes with toxic granulation” value in the series with male rats [1] (setting [11]) was “increased number of neutrophilic granulocytes and a toxic granulation in some cells”. For the same compound, the “Tolerability (in words)” value with male rats [1] (rats, up to 20 mg/kg) was “tolerated with only minor side effects”. Besides, the MTD in series [2] is around 20 mg/kg; in series [4] it was 40 mg/kg. In the series on blood platelets, the negative logarithm of the IC50 (pIC50) is 6.49. Moreover, in the series with male rats [3] (setting [12]), the “Hematological parameters: hemoglobin percentage (HGB)” value was “reduced HGB”. Moreover, in the series on male rats [3] (setting [12]), the “Hematological parameters: red blood cells (RBC)” value is recorded as “reduced RBC”. Besides, in the series with male rats [3] (40 mg/kg once a day for a week, relative to control, hydrochloride, 40 mg/kg), the “Hematological parameters: white blood cells (WBC)” value was “increased WBC; also recorded: increased content of white blood cells”. In addition, in the series on male rats [3] (40 mg/kg, after one week), the Signs of anemia entry is “signs of anemia”.
For the compound `[NH-]c1c[n+](N2CCOCC2)no1` [SIN-1, reference compound], the “c-GMP in PMNs” value in series [5] (1 μM) worked out at 32 fmole/10^6 cells; in [5] (10 μM) it was 220 fmole/10^6 cells; in [5] (100 μM), 473 fmole/10^6 cells. Besides, in [6], the “Inhibition of PMN chemotaxis (in words)” value is “also able to inhibit these leukocyte functions, but only when used in higher concentrations”. For the same compound, the pEC50 in the series on pre-contracted trachea was 4.74. For the same compound, in the series with blood platelets, the negative-log IC50 (pIC50) is 5.41. The Guanylate cyclase activity in series [7] (0.01 μM) is 0 pmole c-GMP/mg prot. × 15 minutes; in [7] (10 μm (so in the source)) it was 59733 pmole c-GMP/mg prot. × 15 minutes. For the same compound, in [8], the “Inhibition of leukotriene B4 synthesis (in words)” value was “also able to inhibit these leukocyte functions, but only when used in higher concentrations”.

Usually MTD stands for the highest dose tested that stayed within the study's limit of toxicity. A low value points to poorer tolerability. As a reminder, the pIC50 is −log10 of the IC50, conventionally taken in molar units. One may read the pEC50 as −log10 of the EC50, conventionally taken in molar units.

For the origin of these results see patent US5405857A, “3-substituted 1,2,3,4,-oxatriazole-5-imine compounds, a process for the preparation thereof and a pharmaceutical preparation containing said compounds” (A/S GEA Farmaceutisk Fabrik, priority 1991, dated 1995).
